{
  "source": "patent EP0497921B1",
  "about": "“METHOD FOR INHIBITING ENZYMATIC SYNTHESIS OF NUCLEIC ACIDS USING ISOPSORALENS” (ISAACS, Stephen T., priority 1989, dated 1991)",
  "key": {"[1]": {"system": "Taq I DNA polymerase", "assay": "Primer extension on site-specific 71-mer monoadduct template", "format": "biochemical, Thermus aquaticus", "settings": "for Taq polymerase extension on 71-mer monoadduct template / position of the Taq polymerase stop within the 71-mer: 55°C, PAGE, autoradiography; for Taq polymerase extension on 71-mer monoadduct template: 0.5, 1.0, 5.0 mins", "procedure": "In this experiment, monoadducted 71-mers (as well as unmodified 71-mers) were used in template-dependent enzymatic extension. AMIP, AMDMIP, and MIP 71-mer monoadducts were made as in Example 17. Extension was carried out as in Example 18 except that in this experiment, Taq I DNA polymerase, a thermostable DNA polymerase isolated from Thermus aquaticus (Stratagene, Inc., La Jolla, CA) was assessed for its ability to read past isopsoralens.\nThe reaction mixture was in 80 µl total volume and comprised 1 x Taq buffer, 200 µM each of dNTP's, 0.05 units of Taq per µl of reaction volume; 1 x 10^-9 M in 71-mer MA; 1 x 10^-8 M in ^32P-labelled SK-39. Each reaction was set up with everything except Taq polymerase. The samples were initially heated to 95°C for 5 mins, then incubated at 55°C for 3 mins. The extension reaction was initiated by addition of Taq polymerase. At the indicated time points (0.5, 1.0, 5.0 mins), 20 µl of the reaction mix was removed to a tube containing 1 µl of 0.5 M EDTA to stop the reaction. All products were analyzed on a 20% polyacrylamide, 7 M urea gel followed by autoradiography.\nThis experiment investigated whether blocking of Taq polymerase by monoadducts is complete or whether monoadducts can be bypassed by the enzyme. In order to view the process of bypass synthesis, it is necessary to cycle the extension reaction of the primer with the 71-mer templates. Cycling in this case consists of mixing the primer with the 71-mer template, adding Taq polymerase and appropriate reagents, extending, heating to induce strand separation, reannealing of the primer to the 71-mer template, extending again, and subsequent stand separation. This process can be repeated as necessary. During this process, only the complement of the 71-mer template is being synthesized. It is accumulating in a linear fashion with the number of thermal cycles (in contrast to PCR where both strands are being synthesized and accumulate geometrically).\nThe templates and reaction conditions were as in Example 19 above except that three samples were used for each monoadduct and each sample was tested under different conditions: • Samples (1): one sample for each monoadduct was used to carry out extension at 55°C as in Example 43; • Samples (2): one sample for each monoadduct was used to carry out extension by the following series of steps: denaturing at 95°C; incubating for 30 seconds at 55°C; adding Taq polymerase for 3 minutes at 550C; cooling the reaction for 1 minute at 7°C; stopping the reaction with EDTA for one minute at 95°C: • Samples (3): one sample for each monoadduct was used to carry out extension by repeating the following series of steps nine times: denaturing at 95°C; incubating for 30 seconds at 55°C; adding Taq polymerase for 3 minutes at 55°C; cooling the reaction for 1 minute at 7°C. At the end, the reaction is stopped with EDTA for one minute at 95°C.\nTo investigate this question further, a new 5-MIP monoadducted 71-mer was prepared by repurification of the HPLC purified 5-MIP monoadducted 15-mer by PAGE. In this way, more of the non-monoadducted 15-mer was removed prior to ligation. The purified 71-mer was then used as template in an extension experiment as described in Example 20. After 10 cycles, there was still evidence of extension product (Figure 34).\nMonoadducted 71-mer was constructed as described, but for HMT. Extension was carried out and analyzed as before on PAGE. […] Full length 71-mer is not made and a shorter strand corresponding to the position of the HMT adduct was made."}, "[2]": {"system": "calf thymus DNA", "assay": "Covalent photobinding of tritiated isopsoralens (scintillation counting)", "format": "binding", "settings": "for actual concentrations obtained empirically: nominal concentration of 100 µg/ml in calf thymus DNA / 1 x TE, counted after sitting overnight at room temperature", "procedure": "Figure 17 can again be referred to as a flow chart schematically showing the manner in which covalent binding was measured for the compounds synthesized by the methods of the present invention. ^3H-AMIP (3.1 x 10^5 cpm/µg), ^3H-AMDMIP (2.2 x 10^5 cpm/µg), and ^3H-MIP (2.1 x 10^5 cpm/µg) were added to 300 µl of calf thymus DNA (Sigma) in 1 x TE buffer. All of the isopsoralen compounds were added at a nominal concentration of 100 µg/ml. However, actual concentrations obtained empirically (counted after sitting overnight at room temperature) were: ^3H-AMIP (105 µg/ml), ^3H-AMDMIP (115 µg/ml), and ^3H-MIP ([…]).\nTo assess binding, three samples were prepared for each compound; two were irradiated (15 minutes at 25°C with the CE-I device) while one was unirradiated as a control. Following irradiation, the samples were extracted four times with CHCl3 then precipitated twice. The final pellet was brought up in 1 ml of 1 x TE buffer and resuspended by shaking at 40°C overnight. 50 µl of each sample was then diluted to 0.5 mls with H20. The concentration of DNA was determined by UV absorption (A260) and the amount of covalently bound isopsoralen (\"adduct\") was determined by scintillation counting (3 x 100 µl aliquots). From these numbers, the following binding ratios (adducts: DNA base pair) were determined: […]"}},
  "data": [
    {"molecule": "4'-Aminomethyl-4,5'-dimethylisopsoralen [AMDMIP]", "values": [
      {"measurement": "Taq polymerase extension on 71-mer monoadduct template", "setting": "[1]", "result": "stops at positions that are shorter than the full length 71-mer product"},
      {"measurement": "position of the Taq polymerase stop within the 71-mer", "setting": "[1]", "result": "a different stop altogether"},
      {"measurement": "actual concentrations obtained empirically", "setting": "[2]", "result": 115, "unit": "µg/mL"}
    ]},
    {"molecule": "5-Aminomethylisopsoralen [AMIP]", "values": [
      {"measurement": "Taq polymerase extension on 71-mer monoadduct template", "setting": "[1]", "result": "stops at positions that are shorter than the full length 71-mer product"},
      {"measurement": "position of the Taq polymerase stop within the 71-mer", "setting": "[1]", "result": "multiple stops"},
      {"measurement": "actual concentrations obtained empirically", "setting": "[2]", "result": 105, "unit": "µg/mL"},
      {"measurement": "modification density relative to that provided by AMDMIP", "setting": "[2]; photobinding at the same concentration", "result": 43, "unit": "%"}
    ]},
    {"molecule": "Cc1cc2occc2c2oc(=O)ccc12", "note": "[MIP, 5-Methylisopsoralen]", "values": [
      {"measurement": "Taq polymerase extension on 71-mer monoadduct template", "setting": "[1]", "result": "stops at positions that are shorter than the full length 71-mer product"},
      {"measurement": "position of the Taq polymerase stop within the 71-mer", "setting": "[1]", "result": "at about the position of the TpA sequence in the 10-mer"},
      {"measurement": "extension products truncated", "setting": "[1]; monoadducted 15-mer repurified by PAGE before ligation, after 10 cycles", "result": 97.7, "unit": "%"},
      {"measurement": "full length extension product as share of the total extension products", "setting": "[1]; monoadducted 15-mer repurified by PAGE before ligation, after 10 cycles, band excised and counted", "result": 2.3, "unit": "%"},
      {"measurement": "actual concentrations obtained empirically", "setting": "[2]", "result": "< 10", "unit": "µg/mL"}
    ]}
  ]
}
